Values of other authors in US7432394B2, “Resolution of α-(phenoxy) phenylacetic acid derivatives with naphthyl-alkylamines” (Metabolex, Inc., priority 2005, dated 2008).

Biological target: cytochrome P450 2C9 (Homo sapiens, UniProt P11712)
Sequence (P11712 whole entry): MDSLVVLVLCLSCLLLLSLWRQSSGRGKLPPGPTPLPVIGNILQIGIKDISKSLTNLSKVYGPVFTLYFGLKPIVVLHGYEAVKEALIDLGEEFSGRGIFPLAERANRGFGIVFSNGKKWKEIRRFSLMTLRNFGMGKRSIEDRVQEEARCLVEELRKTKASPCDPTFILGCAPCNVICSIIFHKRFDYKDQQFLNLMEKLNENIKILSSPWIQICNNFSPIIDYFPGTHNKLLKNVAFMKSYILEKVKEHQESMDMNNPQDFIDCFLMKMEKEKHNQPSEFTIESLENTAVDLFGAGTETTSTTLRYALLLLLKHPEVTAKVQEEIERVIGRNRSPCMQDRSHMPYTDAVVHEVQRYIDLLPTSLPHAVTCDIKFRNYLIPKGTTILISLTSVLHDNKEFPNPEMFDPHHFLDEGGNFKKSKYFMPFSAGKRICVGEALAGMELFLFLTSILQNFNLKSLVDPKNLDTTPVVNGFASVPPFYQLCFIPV

Compound | ability to inhibit cytochrome P450 2C9 compared to the (+)-enantiomer (fold less active than the (+)-enantiomer of halofenic acid) | inhibition of cytochrome P450 2C9 (racemic acid, result in words)
O=C(O)C(Oc1cccc(C(F)(F)F)c1)c1ccc(Cl)cc1 (single isomer, unassigned; (-)) [(−)-enantiomer of halofenic acid, (−)-4-chloro-α-(3-trifluoromethylphenoxy)phenylacetic acid] | about twenty-fold less active | 
O=C(O)C(Oc1cccc(C(F)(F)F)c1)c1ccc(Cl)cc1 (racemic) [halofenic acid, (4-chlorophenyl)(3-trifluoromethylphenoxy)acetic acid] |  | inhibits cytochrome P450 2C9
